Source: paper PMC4745685, “Caffeine affects the biological responses of human hematopoietic cells of myeloid lineage via downregulation of the mTOR pathway and xanthine oxidase activity” (Oncotarget, 2015)

Biological target: T1, xanthine oxidase (XOD) (Bos taurus, UniProt P80457)
T1 construct: gene XDH; purified bovine liver XOD
Experiment: enzyme kinetics, Lineweaver-Burk analysis with purified bovine liver XOD
Type: biochemical

T1 sequence (P80457 2-1332): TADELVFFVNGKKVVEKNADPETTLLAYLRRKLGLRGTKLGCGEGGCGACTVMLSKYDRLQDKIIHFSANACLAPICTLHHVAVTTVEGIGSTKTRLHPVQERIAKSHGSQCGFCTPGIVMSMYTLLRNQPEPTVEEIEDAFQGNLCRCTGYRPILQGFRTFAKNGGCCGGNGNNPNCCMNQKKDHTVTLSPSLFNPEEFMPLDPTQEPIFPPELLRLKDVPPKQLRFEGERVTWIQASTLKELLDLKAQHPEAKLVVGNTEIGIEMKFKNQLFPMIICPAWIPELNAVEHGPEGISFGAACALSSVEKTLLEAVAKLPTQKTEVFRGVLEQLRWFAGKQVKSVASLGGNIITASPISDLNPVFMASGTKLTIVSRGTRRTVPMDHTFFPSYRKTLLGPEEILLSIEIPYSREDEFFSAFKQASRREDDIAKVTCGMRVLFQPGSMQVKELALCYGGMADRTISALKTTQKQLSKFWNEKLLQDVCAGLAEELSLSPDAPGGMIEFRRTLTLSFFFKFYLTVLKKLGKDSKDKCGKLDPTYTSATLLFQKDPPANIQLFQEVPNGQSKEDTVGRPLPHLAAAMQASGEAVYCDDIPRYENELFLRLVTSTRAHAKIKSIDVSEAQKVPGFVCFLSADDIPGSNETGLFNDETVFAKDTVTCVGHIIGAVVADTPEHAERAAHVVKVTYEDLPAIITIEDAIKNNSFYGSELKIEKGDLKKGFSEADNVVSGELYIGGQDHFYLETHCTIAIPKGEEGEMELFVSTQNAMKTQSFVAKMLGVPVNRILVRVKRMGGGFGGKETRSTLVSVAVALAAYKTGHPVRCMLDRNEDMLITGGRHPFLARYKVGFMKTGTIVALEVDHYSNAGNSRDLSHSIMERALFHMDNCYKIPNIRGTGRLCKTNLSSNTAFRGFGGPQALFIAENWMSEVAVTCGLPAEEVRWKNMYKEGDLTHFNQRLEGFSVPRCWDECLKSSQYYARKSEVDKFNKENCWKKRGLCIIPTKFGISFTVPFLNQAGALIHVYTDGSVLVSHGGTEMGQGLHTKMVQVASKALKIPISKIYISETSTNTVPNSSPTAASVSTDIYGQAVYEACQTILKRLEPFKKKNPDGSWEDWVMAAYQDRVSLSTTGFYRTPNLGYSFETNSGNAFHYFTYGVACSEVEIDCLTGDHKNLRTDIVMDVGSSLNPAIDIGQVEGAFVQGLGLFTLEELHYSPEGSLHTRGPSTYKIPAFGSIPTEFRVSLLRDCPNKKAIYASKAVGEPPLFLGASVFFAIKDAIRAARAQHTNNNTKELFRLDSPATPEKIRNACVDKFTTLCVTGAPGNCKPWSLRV

In the case of `Cn1c(=O)c2c(ncn2C)n(C)c1=O` [caffeine, 1,3,7-trimethylxanthine], the Ki is reported as 4.02 mM.
